Reference: patent EP1257544B1, “PIPERAZINE AND PIPERIDINE DERIVATIVES FOR TREATMENT OR PREVENTION OF NEURONAL DAMAGE” (VERTEX PHARMACEUTICALS INCORPORATED, priority 2000, dated 2001)
Where a name gives a salt, the structure may show the parent alone.

test system: Dissociated VM cells; test: Neuroprotection Assay (NMDA-induced neuroexcitotoxic injury, high affinity 3H-dopamine uptake); type: cell-based, Sprague-Dawley rat; details: embryonic day 15 rat ventral mesencephalic cultures, NMDA (100-400 µM) for 20 hours
Text: The neuroprotective activity of the compounds of this invention may be assayed using rat embryo ventral mesencephalic cells in culture which are subsequently exposed to the glutamate receptor agonist NMDA. This assay is described in detail in the example section.
The ventral mesencephalic region was dissected out of embryonic day 15 Sprague-Dawley rat embryos (Harlan), dissociated into single cell suspension by a combination of trypsinization and trituration (Costantini et al., Neurobiol Dis., pp. 97-106 (1998). Dissociated VM cells were plated into poly-L-ornithine-coated 96-well plates at a density of 85,000 cells/well in 100 uL of DMEM supplemented with 18% heat-inactivated horse serum, 0.24% glucose, 2 mM glutamine and 50 u/ml pernicillin/streptomycin and incubated in a 5% CO2 incubator. After one day in culture (DIV1), the medium was replaced with 100 µL of a defined medium (DMEM supplemented with 1x N2 cocktail (Gibco-BRL), 0.12% glucose, 2 mM glutamine, and 50 units/ml penicillin/streptomycin) containing DMSO or various concentrations of the compounds of this invention. On DIV5, neuroexcitotoxic injury was induced by the addition of various concentrations of the glutamate receptor agonist NMDA (100-400 µM). Cultures were incubated with the neurotoxin for 20 hours and the effects of neurophilin compounds were assessed using high affinity ^3H-dopamine uptake according to a procedure published by Park and Mytilineou [Brain Res., 599, pp. 83-97 (1992)].

SMILES | EC50 [µM]
CCN1CCCC[C@H]1C(=O)N1CCN(C(c2ccccc2)c2ccccc2)CC1 [Compound 1, 1-[4-(1,1-Diphenylmethyl)piperazin-1-yl]-1-((S)-1-ethylpiperidin-2-yl)methanone] | < 0.1
CCN1CCCC[C@@H]1C(=O)N1CCN(C(c2ccccc2)c2ccccc2)CC1 [Compound 15, 1-[4-(1,1-Diphenylmethyl)piperazin-1-yl]-1-((R)-1-ethylpiperidin-2-yl)methanone] | < 0.1
CCN1CCCC[C@H]1C(=O)N1CCN(Cc2ccccc2)CC1 [Compound 16, 1-(4-Benzylpiperazin-1-yl)-1-((S)-1-ethylpiperidin-2-yl)methanone] | 0.1 to 0.5
O=C([C@@H]1CCCCN1Cc1ccccc1)N1CCN(C(c2ccccc2)c2ccccc2)CC1 [Compound 20, 1-((S)-1-Benzyl-piperidin-2-yl)-1-[4-(1,1-diphenyl-methyl)-piperazin-1-yl]-methanone] | < 0.1
O=C([C@@H]1CCCCN1Cc1ccc(F)cc1)N1CCN(C(c2ccccc2)c2ccccc2)CC1 [Compound 21, 1-[4-(1,1-Diphenyl-methyl)-piperazin-1-yl]-1-[(S)-1-(4-fluoro-benzyl)-piperidin-2-yl]-methanone] | < 0.1
CCN1CCCC[C@H]1C(=O)N1CCN(C(c2ccc(F)cc2)c2ccc(F)cc2)CC1 [Compound 25, 1-{4-[1,1-Bis-(4-fluorophenyl)methyl]-piperazin-1-yl}-1-((S)-1-ethylpiperidin-2-yl)methanone] | 0.1 to 0.5
CCN1CCCC[C@H]1C(=O)N1CCC(Cc2ccccc2)CC1 [Compound 26, 1-(4-Benzylpiperidin-1-yl)-1-((S)-1-ethylpiperidin-2-yl)methanone] | < 0.1
CCN1CCCC[C@H]1C(=O)N1CCC[C@H]1C(c1ccccc1)c1ccccc1 [Compound 27, 1-[(S)-2-(1,1-Diphenylmethyl)-pyrrolidin-1-yl]-1-((S)-1-ethyl-piperidin-2-yl)-methanone] | > 0.5
O=C([C@@H]1C[C@@H](O)CN1Cc1ccccc1)N1CCC(Cc2ccccc2)CC1 [Compound 30, ((2S,4R) -1-Benzyl-4-hydroxypyrrolidin-2-yl)-(4-benzylpiperidin-1-yl)-methanone] | < 0.1
CCN1CCCC[C@H]1C(=O)N1CCC(Cc2ccccc2)C1 (stereo partly drawn) [Compound 35, (3-Benzylpyrrolidin-1-yl)-((2S)-1-ethylpiperidin-2-yl)-methanone] | 0.1 to 0.5
CCN1CCCC[C@H]1C(=O)N1CCN(Cc2cccnc2)CC1 [Compound 36, ((2S)-1-Ethylpiperidin-2-yl)-(4-pyridin-3-ylmethylpiperazin-1-yl)-methanone trihydrochloride] | > 0.5
CCN1CCCC[C@H]1C(=O)N1CCN(Cc2ccncc2)CC1 [Compound 37, ((2S)-1-Ethylpiperidin-2-yl)-(4-pyridin-4-ylmethylpiperazin-1-yl)-methanone trihydrochloride] | > 0.5
CCN1CCCC[C@H]1C(=O)N1CCN(Cc2ccccn2)CC1 [Compound 38, ((2S)-1-Ethylpiperidin-2-yl)-(4-pyridin-2-ylmethylpiperazin-1-yl)-methanone trihydrochloride] | > 0.5
CCN1CCCC[C@@H]1C(=O)N1CCN(C(c2ccc(F)cc2)c2ccc(F)cc2)CC1 [Compound 40, {4-[Bis-(4-fluorophenyl)methyl]-piperazin-1-yl}-((2R)-1-ethylpiperidin-2-yl)-methanone] | > 0.5
CCN1CCCC[C@H]1C(=O)N1CCN(C(c2ccccc2)c2ccc(Cl)cc2)CC1 (stereo partly drawn) [Compound 41, {4-[(4-Chlorophenyl)phenylmethyl]-piperazin-1-yl}-((2S)-1-ethylpiperidin-2-yl)-methanone dihydrochloride] | < 0.1
CCN1CCCC[C@H]1C(=O)N1CCN(C(c2ccccc2)c2nc(OC)cc(OC)n2)CC1 (stereo partly shown) [Compound 43] | 0.1 to 0.5
CCN1CCCC[C@H]1C(=O)N1CCC(C(c2ccccc2)c2ccccc2)CC1 [Compound 44, (4-Benzhydrylpiperidin-1-yl)-((2S)-1-ethylpiperidin-2-yl)-methanone hydrochloride] | < 0.1
CCN1CCCC[C@H]1C(=O)N1CCC(C(=O)c2ccc(F)cc2)CC1 [Compound 45, ((2S)-1-Ethylpiperidin-2-yl)-[4-(4-fluorobenzoyl)-piperidin-1-yl]-methanone] | 0.1 to 0.5
CCN1CCCC[C@H]1C(=O)N1CCC(C(O)c2ccc(F)cc2)CC1 (stereo partly drawn) [Compound 46, ((2S)-1-Ethylpiperidin-2-yl)-{4-[(4-fluorophenyl)hydroxymethyl]-piperidin-1-yl}-methanone] | > 0.5

SMILES | EC50 [µM]
CCN1CCCC[C@H]1C(=O)N1CCC(Cc2ccc(F)cc2)CC1 [Compound 47, ((2S)-1-Ethylpiperidin-2-yl)-[4-(4-fluorobenzyl)-piperidin-1-yl]-methanone hydrochloride] | < 0.1
O=C([C@@H]1CCCN1Cc1ccccc1)N1CCC(Oc2ccc(F)cc2)CC1 [Compound 48, ((2S)-1-Benzylpyrrolidin-2-yl)-[4-(4-fluorophenoxy)-piperidin-1-yl] -methanone hydrochloride] | < 0.1
O=C([C@@H]1CCCN1Cc1ccccc1)N1CCC(Cc2ccc(F)cc2)CC1 [Compound 49, ((2S)-1-Benzylpyrrolidin-2-yl)-[4-(4-fluorobenzyl)-piperidin-1-yl]-methanone hydrochloride] | < 0.1
CCN1CCC[C@H]1C(=O)N1CCN(C(c2ccc(F)cc2)c2ccc(F)cc2)CC1 [Compound 50, 4-[Bis-(4-fluorophenyl)methyl]piperazin-1-yl}-((2S)-1-ethylpyrrolidin-2-yl)-methanone dihydrochloride] | 0.1 to 0.5
O=C([C@@H]1CCCN1Cc1ccccc1)N1CCC(Cc2ccccc2)CC1 [Compound 52, (4-Benzylpiperidin-1-yl)-((2S)-1-benzylpyrrolidin-2-yl)-methanone hydrochloride] | < 0.1
CCN1CCC[C@H]1C(=O)N1CCC(Cc2ccccc2)CC1 [Compound 53, (4-Benzylpiperidin-1-yl)-((2S)-1-ethylpyrrolidin-2-yl)-methanone hydrochloride] | 0.1 to 0.5
O=C([C@H]1CCCN1Cc1ccccc1)N1CCC(Cc2ccccc2)CC1 [Compound 55, (4-Benzylpiperidin-1-yl)-((2R)-1-benzylpyrrolidin-2-yl)methanone hydrochloride] | 0.1 to 0.5
O=C([C@@H]1CCCN1CCc1ccccc1)N1CCC(Cc2ccccc2)CC1 [Compound 57, (4-Benzylpiperidin-1-yl)-((2S)-1-phenethylpyrrolidin-2-yl)-methanone] | 0.1 to 0.5
O=C([C@@H]1CCCN1Cc1ccc(F)cc1)N1CCC(Cc2ccccc2)CC1 [Compound 58, (4-Benzylpiperidin-1-yl)-[(2S)-1-(4-fluorobenzyl)-Pyrrolidin-2-yl]-methanone hydrochloride] | < 0.1
O=C([C@@H]1CCCN1CCCc1ccccc1)N1CCC(Cc2ccccc2)CC1 [Compound 59, (4-Benzylpiperidin-1-yl)-[(2S)-1-(3-phenylpropyl) - pyrrolidin-2-yl]-methanone hydrochloride] | 0.1 to 0.5
COc1ccc(CN2CCCC[C@H]2C(=O)N2CCN(C(c3ccccc3)c3ccccc3)CC2)cc1 [Compound 60, (4-Benzhydrylpiperazin-1-yl)-[(2S)-1-(4-methoxybenzyl)-piperidin-2-yl]-methanone dihydrochloride] | < 0.1
O=C([C@@H]1CCCCN1Cc1ccccc1)N1CCN(C(c2ccc(F)cc2)c2ccc(F)cc2)CC1 [Compound 61, ((2S)-1-Benzylpiperidin-2-yl)-{4-[bis-(4-fluorophenyl)methyl]-piperazin-1-yl}-methanone] | 0.1 to 0.5
O=C([C@@H]1CCCCN1Cc1ccc(F)cc1)N1CCN(C(c2ccc(F)cc2)c2ccc(F)cc2)CC1 [Compound 62, {4-[Bis-(4-fluorophenyl)methyl]-pipezazin-1-yl}-[(2S)-1-(4-fluorobenzyl)-piperidin-2-yl]-methanone] | 0.1 to 0.5
O=C([C@@H]1CCCCN1CC1CC1)N1CCN(C(c2ccc(F)cc2)c2ccc(F)cc2)CC1 [Compound 63, {4-[Bis-(4-fluorophenyl)methyl]-piperazin-1-yl}-((2S)-1-cyclopropylmethyl-piperidin-2-yl)-methanone] | > 0.5
CC(C)=CCN1CCCC[C@H]1C(=O)N1CCN(C(c2ccc(F)cc2)c2ccc(F)cc2)CC1 [Compound 65, {4-[Bis-(4-fluorophenyl)methyl]-piperazin-1-yl}-[(2S)-1-(3-methyl-but-2-enyl)-piperidin-2-yl]-methanone] | < 0.1
CC(C)CN1CCCC[C@H]1C(=O)N1CCN(C(c2ccc(F)cc2)c2ccc(F)cc2)CC1 [Compound 66, [4-[Bis-(4-fluorophenyl)methyl]-piperazin-1-yl]-((2S)-1-(2-methylpropyl)-piperidin-2-yl)-methanone] | > 0.5
CCN1CCCC[C@H]1C(=O)N1CCN(Cc2ccc(Cl)c(Cl)c2)CC1 [Compound 69, [4-(3,4-Dichlorobenzyl)-piperazin-1-yl]-((2S)-1-ethylpiperidin-2-yl)-methanone dihydrochloride] | < 0.1
CCN1CCCC[C@H]1C(=O)N1CCN(Cc2ccc3c(c2)OCO3)CC1 [Compound 71, (4-Benzo[1,3]dioxol-5-ylmethylpiperazin-1-yl)-((2S)-1-ethylpiperidin-2-yl)-methanone dihydrochloride] | > 0.5
